Assay results taken from ChEMBL document CHEMBL4480432, “Expansion of a novel lead targeting M. tuberculosis DHFR as antitubercular agents” (Bioorg Med Chem, 2019).
In brackets after ≈: the same amount, converted by molar mass.

What was measured:
[1] = Sub-acute toxicity in albino Wistar rat assessed as change in serum protein level at 1.25 mg/kg, po administered for 28 days measured post last dose (reference value: […]); assay type: organism-based; settings: in vivo, 672 h
[2] = Sub-acute toxicity in albino Wistar rat assessed as change in autonomic nervous system at 1.25 to 10 mg/kg, po administered for 28 days; assay type: organism-based; settings: in vivo, 672 h
[3] = Sub-acute toxicity in albino Wistar rat assessed as effect on eyes at 1.25 to 10 mg/kg, po administered for 28 days; assay type: organism-based; settings: in vivo, 672 h
Dihydrofolate reductase = target: T1, Dihydrofolate reductase (Mycobacterium tuberculosis, UniProt P9WNX1); assay: Inhibition of Mycobacterium tuberculosis H37Rv DHFR expressed in Escherichia coli BL21(DE3) assessed as reduction in consumption of NADPH using DHF as substrate preincubated for 1 min followed by DHF addition and measured for 2 mins by spectrophotometric method
T1 sequence (P9WNX1 whole entry): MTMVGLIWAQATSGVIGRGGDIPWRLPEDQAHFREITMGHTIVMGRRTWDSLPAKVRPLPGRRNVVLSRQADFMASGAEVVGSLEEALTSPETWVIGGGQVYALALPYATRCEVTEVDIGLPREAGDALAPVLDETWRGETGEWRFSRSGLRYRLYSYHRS

[4] = Sub-acute toxicity in albino Wistar rat assessed as adverse effect at 1.25 to 10 mg/kg, po administered for 28 days; assay type: organism-based; settings: in vivo, 672 h
[5] = Sub-acute toxicity in albino Wistar rat assessed as change in Urea level at 1.25 mg/kg, po administered for 28 days measured post last dose (reference value: 24.54 +/- 2.12 mg/dl); assay type: organism-based; settings: in vivo, 672 h
[6] = Sub-acute toxicity in albino Wistar rat assessed as change in CAT level per mg protein at 1.25 mg/kg, po administered for 28 days measured post last dose (reference value: 28.45 +/- 2.1 U); assay type: organism-based; settings: in vivo, 672 h
[7] = Sub-acute toxicity in albino Wistar rat assessed as diarrhea at 1.25 to 10 mg/kg, po administered for 28 days; assay type: organism-based; settings: in vivo, 672 h
[8] = Sub-acute toxicity in albino Wistar rat assessed as change in SOD level per mg protein at 2.5 mg/kg, po administered for 28 days measured post last dose (reference value: 4.85 +/- 0.34 U); assay type: organism-based; settings: in vivo, 672 h
[9] = Sub-acute toxicity in albino Wistar rat assessed as mortality at 1.25 to 10 mg/kg, po administered for 28 days; assay type: organism-based; settings: in vivo, 672 h
[10] = Sub-acute toxicity in albino Wistar rat assessed as change in AST level at 1.25 mg/kg, po administered for 28 days measured post last dose (reference value: 22.5 +/- 1.76 U/L); assay type: organism-based; settings: in vivo, 672 h
[11] = Sub-acute toxicity in albino Wistar rat assessed as effect on food intake at 1.25 to 10 mg/kg, po administered for 28 days measured post last dose; assay type: organism-based; settings: in vivo, 672 h
[12] = Sub-acute toxicity in albino Wistar rat assessed as change in body weight at 1.25 to 10 mg/kg, po administered for 28 days; assay type: organism-based; settings: in vivo, 672 h
[13] = Sub-acute toxicity in albino Wistar rat assessed as change in Urea level at 10 mg/kg, po administered for 28 days measured post last dose (reference value: 24.54 +/- 2.12 mg/dl); assay type: organism-based; settings: in vivo, 672 h
[14] = Sub-acute toxicity in albino Wistar rat assessed as change in hemoglobin level at 5 mg/kg, po administered for 28 days measured post last dose (reference value: 12.14 +/- 1.45 g%); assay type: organism-based; settings: in vivo, 672 h
[15] = tested on: DHFR (human versus Mycobacterium tuberculosis H37Rv); assay: Selectivity index, ratio of IC50 for human DHFR to IC50 for Mycobacterium tuberculosis H37Rv DHFR expressed in Escherichia coli BL21(DE3); assay type: toxicity; settings: human and Mycobacterium tuberculosis H37Rv; read-out: Ratio IC50
[16] = Sub-acute toxicity in albino Wistar rat assessed as effect on somatomotor system at 1.25 to 10 mg/kg, po administered for 28 days; assay type: organism-based; settings: in vivo, 672 h
[17] = Sub-acute toxicity in albino Wistar rat assessed as change in AST level at 5 mg/kg, po administered for 28 days measured post last dose (reference value: 25 +/- 1.76 U/L); assay type: organism-based; settings: in vivo, 672 h
[18] = Sub-acute toxicity in albino Wistar rat assessed as effect on clinical changes at 1.25 to 10 mg/kg, po administered for 28 days; assay type: organism-based; settings: in vivo, 672 h
[19] = Sub-acute toxicity in albino Wistar rat assessed as convulsion at 1.25 to 10 mg/kg, po administered for 28 days; assay type: organism-based; settings: in vivo, 672 h
[20] = tested on: Mycobacterium tuberculosis; assay: microbe, parasite or virus in culture; settings: H37Rv ATCC 27294, 168 h
Description: Antitubercular activity against Mycobacterium tuberculosis H37Rv ATCC 27294 after 7 days by microplate alamar blue method

[21] = Sub-acute toxicity in albino Wistar rat assessed as effect on behavioral changes at 1.25 to 10 mg/kg, po administered for 28 days; assay type: organism-based; settings: in vivo, 672 h
[22] = Sub-acute toxicity in albino Wistar rat assessed as change in Urea level at 2.5 mg/kg, po administered for 28 days measured post last dose (reference value: 24.54 +/- 2.12 mg/dl); assay type: organism-based; settings: in vivo, 672 h
[23] = Sub-acute toxicity in albino Wistar rat assessed as change in SOD level per mg protein at 5 mg/kg, po administered for 28 days measured post last dose (reference value: 4.85 +/- 0.34 U); assay type: organism-based; settings: in vivo, 672 h
[24] = Sub-acute toxicity in albino Wistar rat assessed as change in SOD level per mg protein at 10 mg/kg, po administered for 28 days measured post last dose (reference value: 4.85 +/- 0.34 U); assay type: organism-based; settings: in vivo, 672 h
[25] = Sub-acute toxicity in albino Wistar rat assessed as effect on neurological changes at 1.25 to 10 mg/kg, po administered for 28 days; assay type: organism-based; settings: in vivo, 672 h
[26] = Sub-acute toxicity in albino Wistar rat assessed as lethargy at 1.25 to 10 mg/kg, po administered for 28 days; assay type: organism-based; settings: in vivo, 672 h
[27] = Sub-acute toxicity in albino Wistar rat assessed as coma at 1.25 to 10 mg/kg, po administered for 28 days; assay type: organism-based; settings: in vivo, 672 h
[28] = Sub-acute toxicity in albino Wistar rat assessed as change in ALT level at 10 mg/kg, po administered for 28 days measured post last dose (reference value: 12.19 +/- 1.78 U/L); assay type: organism-based; settings: in vivo, 672 h
[29] = Sub-acute toxicity in albino Wistar rat assessed as tremors at 1.25 to 10 mg/kg, po administered for 28 days; assay type: organism-based; settings: in vivo, 672 h
[30] = Sub-acute toxicity in albino Wistar rat assessed as change in hemoglobin level at 2.5 mg/kg, po administered for 28 days measured post last dose (reference value: 12.14 +/- 1.45 g%); assay type: organism-based; settings: in vivo, 672 h
[31] = Sub-acute toxicity in albino Wistar rat assessed as change in respiration at 1.25 to 10 mg/kg, po administered for 28 days; assay type: organism-based; settings: in vivo, 672 h
[32] = Sub-acute toxicity in albino Wistar rat assessed as change in CAT level per mg protein at 10 mg/kg, po administered for 28 days measured post last dose (reference value: 28.45 +/- 2.1 U); assay type: organism-based; settings: in vivo, 672 h
[33] = Sub-acute toxicity in albino Wistar rat assessed as change in MDA level per mg protein at 1.25 mg/kg, po administered for 28 days measured post last dose (reference value: 0.91 +/- 0.1 nmol); assay type: organism-based; settings: in vivo, 672 h

For `CC(=O)c1c(C)n(Cc2ccccc2)c2ccc(OCc3cn(-c4ccc(Br)cc4)nn3)cc12`, the Activity [1] was 6.65 mg/dL, the Activity [2] was “Non-Toxic” and the Activity [3] was “Non-Toxic”. For the same compound, the IC50 (Dihydrofolate reductase) was 6.79 µM, the Activity [4] was “Non-Toxic” and the Activity [5] was 25.12 mg/dL. The Activity [6] was 29.34 U, the Activity [7] was “Non-Toxic” and the Activity [8] was 5.01 U. The Activity [9] was “Non-Toxic”, the Activity [10] was 23.43 U/L and the Activity [11] was “Non-Toxic”. For the same compound, the Activity [12] was “Toxic”, the Activity [13] was 27.54 mg/dL and the Activity [14] was 13.45 g%. For the same compound, the selectivity ratio [15] was 18.4, the Activity [16] was “Non-Toxic” and the Activity [17] was 26.75 U/L. For the same compound, the Activity [18] was “Non-Toxic”, the Activity [19] was “Non-Toxic” and the MIC [20] was 3.03 µM (≈ 1.56 µg/mL). For the same compound, the Activity [21] was “Non-Toxic”, the Activity [22] was 26.54 mg/dL and the Activity [23] was 5.21 U. For the same compound, the Activity [24] was 5.56 U, the Activity [25] was “Non-Toxic” and the Activity [26] was “Non-Toxic”. For the same compound, the Activity [27] was “Non-Toxic”, the Activity [28] was 15.23 U/L and the Activity [29] was “Non-Toxic”. The Activity [30] was 12.83 g%, the Activity [31] was “Non-Toxic” and the Activity [32] was 32.45 U. The Activity [33] was 0.95 nmol.
